Assay results taken from ChEMBL document CHEMBL2073962, “Wild-type breast cancer resistance protein (BCRP/ABCG2) is a methotrexate polyglutamate transporter” (Cancer Res, 2003).
Values belong to the molecule of their own block, whether it stands above or below them.

Legend:
[1] = molecular target: T1, Broad substrate specificity ATP-binding cassette transporter ABCG2 (Homo sapiens, UniProt Q9UNQ0); assay: TP_TRANSPORTER: inhibition of MTX update by Mitoxantrone at a concentration of 50uM in membrane vesicles from BCRP-expressing MCF7 cells; format: functional, cell membranes, Membrane vesicle; set-up: scale not given: the % may be the effect or the level left; settings: mcf7, 50 µM
T1 sequence (Q9UNQ0 whole entry): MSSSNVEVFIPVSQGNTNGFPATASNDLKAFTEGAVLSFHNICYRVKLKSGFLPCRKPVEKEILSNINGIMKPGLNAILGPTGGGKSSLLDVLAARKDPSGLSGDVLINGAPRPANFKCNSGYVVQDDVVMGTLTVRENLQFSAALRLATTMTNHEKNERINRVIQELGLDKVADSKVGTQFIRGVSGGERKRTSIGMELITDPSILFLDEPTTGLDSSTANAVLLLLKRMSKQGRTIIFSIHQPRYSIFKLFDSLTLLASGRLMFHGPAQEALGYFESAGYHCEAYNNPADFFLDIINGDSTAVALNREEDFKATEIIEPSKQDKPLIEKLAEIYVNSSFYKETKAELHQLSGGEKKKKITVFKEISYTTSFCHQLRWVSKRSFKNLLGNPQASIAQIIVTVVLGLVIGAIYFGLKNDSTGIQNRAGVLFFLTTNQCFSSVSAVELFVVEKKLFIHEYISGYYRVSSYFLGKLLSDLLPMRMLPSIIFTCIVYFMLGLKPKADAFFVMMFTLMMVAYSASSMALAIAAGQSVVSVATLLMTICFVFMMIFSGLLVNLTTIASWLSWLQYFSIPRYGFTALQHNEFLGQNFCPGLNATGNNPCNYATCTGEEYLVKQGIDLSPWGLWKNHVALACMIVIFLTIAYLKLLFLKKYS

[2] = molecular target: T1, Broad substrate specificity ATP-binding cassette transporter ABCG2; assay: (§1) TP_TRANSPORTER: uptake (vesicle) in membrane vesicles from BCRP-expressing MCF7 cells; format: functional, cell membranes
[3] = molecular target: T1, Broad substrate specificity ATP-binding cassette transporter ABCG2; assay: TP_TRANSPORTER: inhibition of MTX in membrane vesicles from BCRP-expressing MCF7 cells; format: functional, cell membranes, Membrane vesicle
[4] = substrate: CN(Cc1cnc2nc(N)nc(N)c2n1)c1ccc(C(=O)N[C@@H](CCC(=O)O)C(=O)O)cc1; assay: as §1; format: functional, cell membranes

Molecule: O=C1c2c(O)ccc(O)c2C(=O)c2c(NCCNCCO)ccc(NCCNCCO)c21 [MITOXANTRONE]
- Activity [1]: 50%

- Activity [2]: substrate []
Molecule: CN(Cc1cnc2nc(N)nc(N)c2n1)c1ccc(C(=O)N[C@@H](CCC(=O)N[C@@H](CCC(=O)N[C@@H](CCC(=O)N[C@@H](CCC(=O)O)C(=O)O)C(=O)O)C(=O)O)C(=O)O)cc1

- Activity [2]: substrate []
Molecule: CN(Cc1cnc2nc(N)nc(N)c2n1)c1ccc(C(=O)N[C@@H](CCC(=O)N[C@@H](CCC(=O)N[C@@H](CCC(=O)O)C(=O)O)C(=O)O)C(=O)O)cc1

Molecule: COc1ccc2c3c([nH]c2c1)[C@H](C=C(C)C)N1C(=O)[C@@H]2CCCN2C(=O)[C@@H]1C3 [FUMITREMORGIN]
- Activity [3]: inhibitor []

B1: Broad substrate specificity ATP-binding cassette transporter ABCG2 (Homo sapiens) (protein)
chain: MSSSNVEVFIPVSQGNTNGFPATASNDLKAFTEGAVLSFHNICYRVKLKSGFLPCRKPVEKEILSNINGIMKPGLNAILGPTGGGKSSLLDVLAARKDPSGLSGDVLINGAPRPANFKCNSGYVVQDDVVMGTLTVRENLQFSAALRLATTMTNHEKNERINRVIQELGLDKVADSKVGTQFIRGVSGGERKRTSIGMELITDPSILFLDEPTTGLDSSTANAVLLLLKRMSKQGRTIIFSIHQPRYSIFKLFDSLTLLASGRLMFHGPAQEALGYFESAGYHCEAYNNPADFFLDIINGDSTAVALNREEDFKATEIIEPSKQDKPLIEKLAEIYVNSSFYKETKAELHQLSGGEKKKKITVFKEISYTTSFCHQLRWVSKRSFKNLLGNPQASIAQIIVTVVLGLVIGAIYFGLKNDSTGIQNRAGVLFFLTTNQCFSSVSAVELFVVEKKLFIHEYISGYYRVSSYFLGKLLSDLLPMRMLPSIIFTCIVYFMLGLKPKADAFFVMMFTLMMVAYSASSMALAIAAGQSVVSVATLLMTICFVFMMIFSGLLVNLTTIASWLSWLQYFSIPRYGFTALQHNEFLGQNFCPGLNATGNNPCNYATCTGEEYLVKQGIDLSPWGLWKNHVALACMIVIFLTIAYLKLLFLKKYS
- Km [4]: 680 µM
